Source: the NIST ThermoML archive (doi:10.1016/j.jct.2004.09.007)

Legend:
[1] = molar heat capacity at constant pressure; xn = mol fraction of the nth substance listed; details: 101.3 kPa, Liquid, Large sample (1 g) DSC, x2 = 0
[2] = 298.15 K; 101.33 kPa; Liquid; Pycnometric method
[3] = molar heat capacity at constant pressure; details: 101.3 kPa, Liquid, Large sample (1 g) DSC

CCCCO [butan-1-ol] + CC(O)CCO
[1]
Details | molar heat capacity at constant pressure [J/K/mol]
285.15 K | 168.64
285.65 K | 169.01
288.15 K | 170.39
290.65 K | 172
293.15 K | 173.56
295.65 K | 175.19
298.15 K | 176.82
300.65 K | 178.53
303.15 K | 180.42
305.65 K | 182.27
308.15 K | 184.15
310.65 K | 186.08
313.15 K | 187.99
315.65 K | 189.99
318.15 K | 192.06
320.65 K | 194.2
323.15 K | 196.35
325.65 K | 198.45
328.15 K | 200.45
330.65 K | 202.76
333.15 K | 204.94
335.65 K | 207.1
338.15 K | 209.17
340.65 K | 211.74
343.15 K | 213.82
345.65 K | 216.35
348.15 K | 218.32
350.65 K | 220.5
353.15 K | 222.81

CC(O)CCO (centres undefined) [1,3-butanediol]
Details | mass density [kg/m3]
[2] | 1000.42

[3]
Details | molar heat capacity at constant pressure [J/K/mol]
285.15 K | 211.74
285.65 K | 212.17
288.15 K | 213.57
290.65 K | 215.06
293.15 K | 216.58
295.65 K | 218.04
298.15 K | 219.62
300.65 K | 221.14
303.15 K | 222.8
305.65 K | 224.37
308.15 K | 226.07
310.65 K | 227.65
313.15 K | 229.24
315.65 K | 230.82
318.15 K | 232.6
320.65 K | 234.14
323.15 K | 235.83
325.65 K | 237.52
328.15 K | 239.08
330.65 K | 240.59
333.15 K | 242.28
335.65 K | 243.86
338.15 K | 245.11
340.65 K | 247.19
343.15 K | 248.62
345.65 K | 250.13
348.15 K | 251.66
350.65 K | 253.24
353.15 K | 254.86

CCCCO [butan-1-ol]
Details | mass density [kg/m3]
[2] | 805.82

[3]
Details | molar heat capacity at constant pressure [J/K/mol]
285.15 K | 168.64
285.65 K | 169.01
288.15 K | 170.39
290.65 K | 172
293.15 K | 173.56
295.65 K | 175.19
298.15 K | 176.82
300.65 K | 178.53
303.15 K | 180.42
305.65 K | 182.27
308.15 K | 184.15
310.65 K | 186.08
313.15 K | 187.99
315.65 K | 189.99
318.15 K | 192.06
320.65 K | 194.2
323.15 K | 196.35
325.65 K | 198.45
328.15 K | 200.45
330.65 K | 202.76
333.15 K | 204.94
335.65 K | 207.1
338.15 K | 209.17
340.65 K | 211.74
343.15 K | 213.82
345.65 K | 216.35
348.15 K | 218.32
350.65 K | 220.5
353.15 K | 222.81
